Experimental data as given in patent US12528774B2, “Thiosemicarbazone compounds and uses thereof” (The Regents of the University of California, priority 2019, dated 2026).

Tested on: MIAPACA2 cells
Test: Western blot of treated MIAPACA2 cells
Assay type: cell-based, human
Conditions: for phosphorylation of CHEK1 and CHEK2: HCT13 + Cu(II)
Method: FIGS. 2A-2I. FIG. 2A: representative immunoblots of MIAPACA2 PDAC cells treated as indicated for 24h. FIGS. 2B-2C: reactive oxygen species (ROS) measurement using CM-H2DCFDA staining after HCT13 (25 nM)+Cu(II) (20 μM) treatment for 24h; mean fluorescence intensity (MFI); mean±SD, n=2, Student t-test, ***P<0.001. FIG. 2D-2E: mitochondrial ROS detection using MitoSOX staining in MIAPACA2 PDAC cells treated with HCT-13 (25 nM)+Cu(II) (20 μM) for 24h; mean±SD, n=2, Student t-test, ***P<0.001. FIG. 2F: oxygen consumption rate (OCR) of MIAPACA2 PDAC cells treated with HCT-13 (25 nM)+Cu(II) (20 μM). FIG. 2G: OCR of isolated mitochondria measured with or without HCT-13 (25 nM)+Cu(II) (20 μM). FIG. 2H: viability of 143 BTK parental (wild type, WT) and po cells after 48 h of treatment with the indicated HCT-13 concentrations+Cu(II) (20 μM) treatment, assessed with trypan blue staining; mean±SD, n=2, Student t-test, ***P<0.001. FIG. 2I: cell viability by trypan blue staining in MIAPACA2 PDAC cells to interrogate the interaction of HCT-13 (25 nM)+Cu(II) (20 μM) with 2-DG (2 mM) for 48 h; mean±SD, n=2, Student t-test, ***P<0.001.
FIGS. 4A-4G show the chemical genomics screen identifying the replication stress response pathway as an actionable co-dependency of HCT13-treated cells. FIG. 4A: experimental design of a synthetic lethality screen using a library of protein kinase inhibitors against HCT13-treated cells in the presence of Cu(II) (20 μM). FIG. 4B: radar plot of screen results. FIG. 4C: z-score values for kinase inhibitors within the DNA damage response/replication stress response (DDR/RSR) pathway module. FIG. 4D: representative immunoblot of replication stress and cell death biomarkers in MIAPACA2 PDAC cells treated with HCT13 (10 nM)+Cu(II) (20 μM). […] (mean±SD, n=2, one-way ANOVA corrected for multiple comparisons by Bonferroni adjustment, * P<0.05; ** P<0.01; *** P<0.001; **** P<0.0001).
(§1) Western blot: Cells were lysed using RIPA buffer supplemented with protease (ThermoFisher, 78,430) and phosphatase (ThermoFisher, 78,420) inhibitors, scraped, sonicated, and centrifuged (20,000×g at 4° C.). Protein concentrations in the supernatant were determined using the Micro BCA Protein Assay kit (Thermo), and equal amounts of protein were resolved on pre-made Bis-Tris polyacrylamide gels (Life Technologies). Primary antibodies: pAMPKT172 (Cell signaling, #2535, 1:1000), HO-1 (Cell signaling, #5061S, 1:1000), pS345 CHEK1 (Cell signaling, #2348L, 1:1000), pT68 CHEK2 (Cell signaling, #2197 S, 1:1000), pS139 H2A.X (Millipore, 05-636, 1:1000), clvd. Casp3 (Cell signaling, #9662, 1:1000), and anti-actin (Cell Signaling Technology, 9470, 1:10,000). Primary antibodies were stored in 5% BSA (Sigma-Aldrich) and 0.1% NaN3 in TBST solution. Anti-rabbit IgG HRP-linked (Cell Signaling Technology, 7074, 1:2500) and anti-mouse IgG HRP-linked (Cell Signaling Technology, 7076, 1:2500) were used as secondary antibodies. Chemiluminescent substrates (ThermoFisher Scientific, 34,077 and 34,095) and autoradiography film (Denville) were used for detection.
as §1, with “blot.” for “blot:”, “Anti-rabbit IgG HRP-linked (Cell Signaling Technology, 7074, 1:2500) and anti-mouse IgG HRP-linked (Cell Signaling Technology, 7076, 1:2500) were used as secondary antibodies. Chemiluminescent substrates (ThermoFisher Scientific, 34,077 and 34,095) and autoradiography film (Denville) were used for detection.” left out

Question: Which “heme oxygenase-1 (HO-1) levels” value (24 h) does the source give for `CN(C)C(=S)N/N=C/c1nccc2cc(F)ccc12` (mixture of isomers) [HCT13, (E)-2-((6-Fluoroisoquinolin-1-yl)methylene)-N,N-dimethylhydrazine-1-carbothioamide and (Z)-2-((6-Fluoroisoquinolin-1-yl)methylene)-N,N-dimethylhydrazine-1-carbothioamide] here?
Answer: The value was “increased”.

Question: What about the “AMPK phosphorylation (T172)” value (Cu(II)-supplemented cells, 24 hours) of the same compound?
Answer: Its value is “induction”.

Question: And the “phosphorylation of CHEK1 and CHEK2” value?
Answer: The value was “consistently observed phosphorylation”.

Question: And the “phosphorylation of CHEK1 and CHEK2” value (listed as HCT-13)?
Answer: Its value is “phosphorylation of CHEK1 and CHEK2 kinases was observed”.

Question: And the “DNA damage marker pH2AX” value (HCT-13 + Cu(II))?
Answer: Its value is “induction of DNA damage marker pH2AX”.

Question: And the “apoptotic marker caspase 3” value (HCT-13 + Cu(II))?
Answer: The value was “cleavage of apoptotic marker caspase 3”.
